Among the data in patent US6875760B2 (Novo Nordisk A/S, priority 1999, dated 2005) are inhibition and IC50 values, retold here.

For orientation: IC50 means the point on the concentration scale where inhibition reaches its midpoint.

In this test the target is T1, cloned human glucagon receptor (Homo sapiens, UniProt P47871).
T1 construct: expressed in transfected cells; plasma membrane preparation
Nature of the test: Glucagon Binding Assay (II). The settings on record: for inhibition at 1 µM: screened at 1 μM, library compounds, read-out: displacement of the glucagon tracer when screened at 1 μM concentration in the glucagon binding assay II; for IC50: plasma membranes of BHK cells expressing the receptor, read-out: Glu Bd Assay (II) IC50.

T1 sequence (P47871 26-477): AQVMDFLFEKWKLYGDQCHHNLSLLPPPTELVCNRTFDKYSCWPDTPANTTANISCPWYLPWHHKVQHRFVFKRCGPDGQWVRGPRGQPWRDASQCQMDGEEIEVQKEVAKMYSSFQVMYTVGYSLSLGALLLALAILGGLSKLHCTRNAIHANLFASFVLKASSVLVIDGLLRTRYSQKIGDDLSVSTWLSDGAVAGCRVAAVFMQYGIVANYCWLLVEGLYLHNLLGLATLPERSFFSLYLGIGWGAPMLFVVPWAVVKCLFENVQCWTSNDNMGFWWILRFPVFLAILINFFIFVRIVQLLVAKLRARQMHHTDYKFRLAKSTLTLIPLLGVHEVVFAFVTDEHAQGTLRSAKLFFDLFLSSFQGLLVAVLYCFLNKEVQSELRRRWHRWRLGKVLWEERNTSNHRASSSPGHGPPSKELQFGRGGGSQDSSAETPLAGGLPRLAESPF

`O=C(O)CCCOc1ccc(CN(C(=O)Nc2ccc(C(=O)O)cc2)c2ccc(C3CCCCC3)cc2)cc1` [Example 218, 4-[3-[4-(3-Carboxypropoxy)benzyl]-3-(4-cyclohexylphenyl)ureido]benzoic acid]: the inhibition at 1 µM was > 50%.

For the compound `Cc1cc(C)cc(NC(=O)N(Cc2ccc(OCCCC(=O)O)cc2)c2ccc(C3CCCCC3)cc2)c1` [Example 219, 4-{4-[1-(4-Cyclohexylphenyl)-3-(3,5-dimethylphenyl)ureidomethyl]phenoxy}butyric acid], the inhibition at 1 µM was > 50%.

On to `O=C(O)CCCOc1ccc(CN(C(=O)Nc2cc(C(=O)O)cc(C(=O)O)c2)c2ccc(C3CCCCC3)cc2)cc1` [Example 220, 5-[3-[4-(3-Carboxypropoxy)benzyl]-3-(4-cyclohexylphenyl)ureido]isophthalic acid], for which the inhibition at 1 µM was > 50%.

Turning to `COc1ccc2nc(N(Cc3ccc(OCCCC(=O)O)cc3)C(=O)Nc3ccc(Cl)c(C(F)(F)F)c3)sc2n1` [Example 221, 4-{4-[3-(4-Chloro-3-trifluoromethylphenyl)-1-(5-methoxythiazolo[5,4-b]pyridin-2-yl)ureidomethyl]phenoxy}butyric acid], the inhibition at 1 µM was > 50%.

With `CC(C)(C)C1CCC(N(Cc2ccc(OCCCC(=O)O)cc2)C(=O)Nc2ccc(OC(F)(F)F)cc2)CC1` (centres unmarked) [Example 224, 4-{4-[1-(4-tert-Butylcyclohexyl)-3-(4-trifluoromethoxyphenyl)ureidomethyl]phenoxy}butyric acid], the inhibition at 1 µM was > 50%.

As to `CC(C)(C)C1CCC(N(Cc2ccc(OCCCC(=O)O)cc2)C(=O)Nc2ccc(Cl)c(C(F)(F)F)c2)CC1` (centres unmarked) [Example 225, 4-{4-[1-(4-tert-Butylcyclohexyl)-3-(4-chloro-3-trifluoromethylphenyl)ureidomethyl]phenoxy}butyric acid], the inhibition at 1 µM was > 50%.

Consider `CC(C)(C)C1CCC(N(Cc2ccc(OCCCC(=O)O)cc2)C(=O)Nc2ccc(C(=O)O)cc2)CC1` (centres unmarked) [Example 226, 4-{3-(4-tert-Butylcyclohexyl)-3-[4-(3-carboxypropoxy)benzyl]ureido}benzoic acid], for which the inhibition at 1 µM is > 50%.

Take `Cc1cc(C)cc(NC(=O)N(Cc2ccc(OCCCC(=O)O)cc2)C2CCC(C(C)(C)C)CC2)c1` (centres unmarked) [Example 227, 4-{4-[1-(4-tert-Butylcyclohexyl)-3-(3,5-dimethylphenyl)ureidomethyl]phenoxy}butyric acid]: the inhibition at 1 µM is > 50%.

For the compound `O=C(O)CCN1C(=O)c2ccc(CN(C(=O)Nc3ccc(OC(F)(F)F)cc3)c3ccc4nc(S)sc4c3)cc2C1=O` [Example 228, 3-{5-[1-(2-Mercaptobenzothiazol-6-yl)-3-(4-trifluoromethoxyphenyl)ureidomethyl]-1,3-dioxo-1,3-dihydro-isoindol-2-yl}propionic acid], the inhibition at 1 µM was > 50%.

`O=C(O)CCN1C(=O)c2ccc(CN(C(=O)Nc3ccc(Cl)c(C(F)(F)F)c3)c3ccc4nc(S)sc4c3)cc2C1=O` [Example 229, 3-{5-[3-(4-Chloro-3-trifluoromethylphenyl)-1-(2-mercaptobenzothiazol-6-yl)ureidomethyl]1,3-dioxo-1,3-dihydro-isoindol-2-yl}propionic acid]: the inhibition at 1 µM was > 50%.

For the compound `CC(C)(C)C1CCC(N(Cc2ccc(C(=O)NCCC(=O)O)cc2)C(=O)Nc2ccc(Cl)cc2)CC1` (centres unmarked) [Example 230, 3-{4-[1-(4-tert-Butylcyclohexyl)-3-(4-chlorophenyl)ureidomethyl]benzoylamino}propionic acid], the IC50 is 229 nM.

As for `O=C(O)CCNC(=O)c1ccc(CN(C(=O)Nc2ccc(OC(F)(F)F)cc2)C2CC2c2ccccc2)cc1` (centres unmarked) [Example 231, 3-{4-[1-(2-Phenylcyclopropyl)-3-(4-trifluoromethoxyphenyl)ureidomethyl]benzoylamino}propionic acid], the IC50 is 349 nM.

Take `O=C(O)CCNC(=O)c1ccc(CN(C(=O)Nc2ccc(SC(F)(F)F)cc2)c2ccc(C3CCCCC3)cc2)cc1` [Example 233, 3-{4-[1-(4-Cyclohexylphenyl)-3-(4-trifluoromethylsulfanylphenyl)ureidomethyl]benzoylamino}propionic acid]: the IC50 was determined as 20 nM.

In the case of `CC1(C)[C@@H]2CC[C@@H](CN(Cc3ccc(C(=O)NCCC(=O)O)cc3)C(=O)Nc3ccc(OC(F)(F)F)cc3)[C@@H]1C2` [Example 234, 3-{4-[1-([(1S,2R,5R)-6,6-Dimethylbicyclo[3.1.1]hept-2-yl]methyl)-3-(4-trifluoromethoxyphenyl)ureidomethyl]benzoylamino}propionic acid], the IC50 amounted to 112 nM.

On to `CC(C)(C)[C@H]1CC[C@H](N(Cc2ccc(C(=O)NCCC(=O)O)cc2)C(=O)Nc2ccc(SC(F)(F)F)cc2)CC1` [Example 235], for which the IC50 came to 14 nM.

On to `CC(C)(C)C1CCC(N(Cc2ccc(C(=O)NCCC(=O)O)cc2)C(=O)Nc2ccc(Cl)c(C(F)(F)F)c2)CC1` (centres unmarked) [Example 236], for which the half-maximal inhibitory concentration (IC50) worked out at 29 nM.

Regarding `CC(C)(C)C1CCC(N(Cc2ccc(OC(F)(F)F)cc2)Cc2ccc(C(=O)NCCC(=O)O)cc2)CC1` (centres unmarked) [Example 385, 3-(4-{[(4-tert-Butylcyclohexyl)-(4-trifluoromethoxybenzyl)amino]methyl}benzoylamino)propionic acid], the IC50 was 33 nM.

As to `O=C(O)CCNC(=O)c1ccc(CN(Cc2ccc(OC(F)(F)F)cc2)c2ccc(C3CCCCC3)cc2)cc1` [Example 386, 3-(4-{[(4-Cyclohexylphenyl)-(4-trifluoromethoxybenzyl)amino]methyl}benzoylamino)propionic acid], the 50% inhibitory concentration (IC50) was found to be 102 nM.

Take `O=C(O)CCNC(=O)c1ccc(CN(Cc2ccc(OC(F)(F)F)cc2)[C@H]2CC[C@H](C3CCCCC3)CC2)cc1` [Example 387, 3-(4-{[(trans-4-cyclohexylcyclohexyl)-(4-trifluoromethoxybenzyl)amino]methyl}benzoylamino)propionic acid]: the IC50 stood at 111 nM.

As to `O=C(Nc1nn[nH]n1)c1ccc(CN(Cc2ccc(OC(F)(F)F)cc2)c2ccc(C3CCCCC3)cc2)cc1` [Example 388, 4-{[(4-Cyclohexylphenyl)-(4-trifluoromethoxybenzyl)amino]methyl}-N-(2H-tetrazol-5-yl)benzamide], the IC50 is 156 nM.

As for `CC(C)S(=O)(=O)Cc1cccc(NC(=O)N(Cc2ccc(C(=O)Nc3nn[nH]n3)cc2)c2ccc(C3CCCCC3)cc2)c1` [Example 389, 4-{1-(4-Cyclohexylphenyl)-3-[3-(propane-2-sulfonylmethyl)phenyl]ureidomethyl}-N-(2H-tetrazol-5-yl)benzamide], the IC50 came out at 337 nM.

On to `O=C(O)CCNC(=O)c1ccc(CN(C(=O)NCc2cc(Cl)cc(Cl)c2)c2ccc(C3CCCCC3)cc2)cc1` [Example 395, 3-{4-[1-(4-Cyclohexylphenyl)-3-(3,5-dichlorobenzyl)ureidomethyl]benzoylamino}propionic acid], for which the IC50 turned out to be 153 nM.

In the case of `O=C(Nc1nn[nH]n1)c1ccc(CN(C(=O)Nc2ccc3c(c2)OC(F)(F)C(F)(F)O3)c2ccc(C3CCCCC3)cc2)cc1` [Example 396, 4-[1-(4-Cyclohexylphenyl)-3-(2,2,3,3-tetrafluoro-2,3-dihydrobenzo[1,4]dioxin-6-yl)ureidomethyl]-N-(2H-tetrazol-5-yl)benzamide], the IC50 was 13 nM.

Consider `O=C(O)CCNC(=O)c1ccc(CN(Cc2ccc(OC(F)(F)F)cc2)[C@H]2CC[C@@H](C3CCCCC3)CC2)cc1` [Example 570, 3-(4-{[(cis-4-Cyclohexylcyclohexyl)-(4-trifluoromethoxybenzyl)amino]methyl}benzoylamino)propionic acid], for which the IC50 worked out at 44 nM.

As for `O=C(Nc1nn[nH]n1)c1ccc(CN(Cc2ccc(OC(F)(F)F)cc2)[C@H]2CC[C@@H](C3CCCCC3)CC2)cc1` [Example 572, 4-({(4-cis-Cyclohexylcyclohexyl)-[4-(trifluoromethoxy)benzyl]amino}methyl)-N-(2H-tetrazol-5-yl)benzamide], the IC50 was 166 nM.

For the compound `O=C(NCc1nn[nH]n1)c1ccc(CN(Cc2ccc(OC(F)(F)F)cc2)[C@H]2CC[C@@H](C3CCCCC3)CC2)cc1` [Example 573, 4-({(4-cis-Cyclohexylcyclohexyl)-[4-(trifluoromethoxy)benzyl]amino}methyl)-N-(2H-tetrazol-5-ylmethyl)benzamide], the IC50 came to 152 nM.

For `O=C(Nc1nn[nH]n1)c1ccc(CN(Cc2ccc(OC(F)(F)F)cc2)[C@H]2CC[C@H](C3CCCCC3)CC2)cc1` [Example 574, 4-({(trans-4-Cyclohexylcyclohexyl)-[4-(trifluoromethoxy)benzyl]amino}methyl)-N-(2H-tetrazol-5-yl)benzamide], the IC50 was found to be 159 nM.

As for `O=C(Nc1nn[nH]n1)c1ccc(CN(C(=O)Nc2ccc(OC(F)(F)F)cc2)[C@H]2CC[C@@H](C3CCCCC3)CC2)cc1` [Example 575, 4-[1-(4-cis-Cyclohexylcyclohexyl)-3-(4-trifluoromethoxyphenyl)ureidomethyl]-N-(2H-tetrazol-5-yl)benzamide], the IC50 was 15 nM.

Turning to `O=C(Nc1nn[nH]n1)c1ccc(CN(C(=O)Nc2ccc(OC(F)(F)F)cc2)[C@H]2CC[C@H](C3CCCCC3)CC2)cc1` [Example 576, 4-[1-(4-trans-Cyclohexylcyclohexyl)-3-(4-trifluoromethoxyphenyl)ureidomethyl]-N-(2H-tetrazol-5-yl)benzamide], the IC50 turned out to be 4 nM.

Turning to `O=C(O)CCNC(=O)c1ccc(CN(C(=O)Nc2ccc(OC(F)(F)F)cc2)C2CCC(C3CCCCC3)CC2)cc1` (centres unmarked) [Example 577, 3-{4-[1-(4-Cyclohexylcyclohexyl)-3-(4-trifluoromethoxyphenyl)ureidomethyl]benzoylamino}propionic acid], the IC50 is 18 nM.

Turning to `CC(C)(C)[C@H]1CC[C@H](N(Cc2ccc(C(=O)NCCC(=O)O)cc2)Cc2cc(Cl)cc(Cl)c2)CC1` [Example 580, 3-(4-{[(trans-4-tert-Butylcyclohexyl)-(3,5-dichlorobenzyl)amino]methyl}benzoylamino)propionic acid], the IC50 worked out at 57 nM.

In the case of `O=C(O)CCNC(=O)c1ccc(CN(Cc2cccc(Br)c2)c2ccc(C3CCCCC3)cc2)cc1` [Example 581, 3-(4-{[(3-Bromobenzyl)-(4-cyclohexylphenyl)amino]methyl}benzoylamino)propionic acid], the IC50 worked out at 142 nM.
